These results are taken from publication PMC7238241, “Lack of Correlation between In Vitro and In Vivo Studies on the Inhibitory Effects of (‒)-Sophoranone on CYP2C9 Is Attributable to Low Oral Absorption and Extensive Plasma Protein Binding of (‒)-Sophoranone” (Pharmaceutics, 2020).

Data set [1] deals with CYP1A2, CYP2A6, CYP2B6, CYP2C8, CYP2C9, CYP2C19, CYP2D6, CYP2E1, and CYP3A4. The experiment in a line: Time-dependent inactivation (IC50 shift) of the nine CYP isoforms in human liver microsomes. It is filed as biochemical. To be noted: 30 min pre-incubation with human liver microsomes in the presence of NADPH. As to the method:
Pooled human liver microsomes (1 mg/mL) were incubated with SPN (0−50 µM) for 30 min at 37 °C in the absence or presence of an NADPH-generating system (i.e., the “inactivation incubation”). After inactivation incubation, aliquots (10 μL) were transferred into fresh incubation tubes (final volume 100 μL) containing an NADPH-generating system and each P450-selective substrate cocktail set. The reaction mixtures were incubated for 15 min at 37 °C in a shaking water bath. After incubation, the reactions were stopped by adding 200 µL of ice-cold acetonitrile containing 2 µM chlorpropamide, as an internal standard. The incubation mixtures were centrifuged (16,000× g, 15 min) and 5 μL of the supernatant was injected into the LC-MS/MS system. All incubations were performed in triplicate, and the data are shown as the mean ± standard deviation.

Data set [2] concerns the target T1, CYP1A2 (Homo sapiens, UniProt P05177).
T1 construct: tissue Corning Life Sciences; host or cells: pooled human liver microsomes, 150 donors
T1 sequence (P05177 1-516): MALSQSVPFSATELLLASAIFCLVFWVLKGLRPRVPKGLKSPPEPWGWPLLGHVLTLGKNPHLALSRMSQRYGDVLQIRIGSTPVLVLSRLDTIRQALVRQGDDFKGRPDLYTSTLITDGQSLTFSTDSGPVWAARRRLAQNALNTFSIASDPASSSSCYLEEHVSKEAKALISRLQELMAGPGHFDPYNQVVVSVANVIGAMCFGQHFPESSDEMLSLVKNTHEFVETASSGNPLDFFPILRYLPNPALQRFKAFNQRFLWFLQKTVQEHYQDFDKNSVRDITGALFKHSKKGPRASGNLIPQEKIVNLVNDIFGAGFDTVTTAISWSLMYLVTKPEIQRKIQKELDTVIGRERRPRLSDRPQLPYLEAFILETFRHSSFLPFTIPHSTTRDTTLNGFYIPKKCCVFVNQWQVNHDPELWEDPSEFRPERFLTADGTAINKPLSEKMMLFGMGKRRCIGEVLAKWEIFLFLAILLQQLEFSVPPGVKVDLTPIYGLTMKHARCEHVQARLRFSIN
The experiment in a line: Reversible CYP1A2 inhibition, cocktail assay (phenacetin O-deethylase) in human liver microsomes. It is filed as biochemical. The method, then: (§1) The inhibitory effects of SPN on CYP1A2, CYP2A6, CYP2B6, CYP2C8, CYP2C9, CYP2C19, CYP2D6, CYP2E1, and CYP3A4 were evaluated in pooled human liver microsomes through the use of specific CYP probe substrates (cocktail assay), as previously described with a slight modification. Concentrations of each CYP probe in Table 1 were used close to their reported Km values.
(§2) Briefly, a 90-µL incubation mixture, including pooled human liver microsomes (final concentration 0.1 mg/mL), 50 mM phosphate buffer (pH 7.4), each CYP-probe substrate cocktail set, and SPN (0–50 μM), was pre-incubated for 5 min at 37 °C. SPN was dissolved in methanol and spiked into the incubation mixture to a final concentration of 0.5% methanol. […]
(§3) The IC50 values were calculated via nonlinear least-squares regression analysis from logarithmic plots of inhibitor concentration versus percentage of activity remaining after inhibition, using SigmaPlot (ver. 14.0; Systat Software Inc, Chicago, IL, USA). The Ki values were determined from the equations for a single substrate single inhibitor model and the software available in the SigmaPlot Enzyme Kinetics module. Competitive, non-competitive, uncompetitive, or mixed inhibition models were evaluated and ranked according to the best fit based on Akaike Information Criterion (AIC) values. […]

Data set [3] concerns the target T2, CYP2B6 (Homo sapiens, UniProt P20813).
T2 construct: tissue Corning Life Sciences; host or cells: pooled human liver microsomes, 150 donors
T2 sequence (P20813 1-491): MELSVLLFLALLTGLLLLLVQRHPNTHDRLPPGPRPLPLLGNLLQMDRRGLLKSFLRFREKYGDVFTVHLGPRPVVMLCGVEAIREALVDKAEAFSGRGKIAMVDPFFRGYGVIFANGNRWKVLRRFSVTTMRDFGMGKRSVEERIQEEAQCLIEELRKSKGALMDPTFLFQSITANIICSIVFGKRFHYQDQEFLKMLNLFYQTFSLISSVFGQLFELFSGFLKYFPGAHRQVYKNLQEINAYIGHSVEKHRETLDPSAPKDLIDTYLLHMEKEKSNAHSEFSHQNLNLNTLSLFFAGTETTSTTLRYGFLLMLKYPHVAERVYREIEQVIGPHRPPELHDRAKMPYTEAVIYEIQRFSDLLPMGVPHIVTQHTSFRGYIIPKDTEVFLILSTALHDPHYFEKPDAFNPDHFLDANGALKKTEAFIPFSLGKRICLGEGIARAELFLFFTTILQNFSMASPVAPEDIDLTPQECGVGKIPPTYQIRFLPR
Nature of the data set: Reversible CYP2B6 inhibition, cocktail assay (bupropion hydroxylase) in human liver microsomes. In kind it is biochemical. As to the method:
as §1, §2, §3

Data set [4] addresses T3, CYP2C19 (Homo sapiens, UniProt P33261).
T3 construct: tissue Corning Life Sciences; host or cells: pooled human liver microsomes, 150 donors
Nature of the data set: Reversible CYP2C19 inhibition, cocktail assay (omeprazole 5-hydroxylase) in human liver microsomes. To be noted: human liver microsomes 0.1 mg/mL, omeprazole probe, n = 3. It is filed as biochemical. As to the method:
as §1, §2, §3

Data set [5] in a line: Unbound fraction in human plasma (rapid equilibrium dialysis). It is filed as in vitro ADME. The method, then: The plasma or liver microsomal protein bindings were performed using a rapid equilibrium dialysis device and cellulose membranes with a molecular weight cutoff of 8000 (Thermo Scientific, Rockford, IL, USA). The rat and human plasma samples (200 μL) containing SPN at 10 and 50 μM, respectively, were dialyzed against a dialysis buffer, phosphate-buffered saline (PBS, 400 μL). The loaded dialysis plate was covered with sealing tape, placed on an orbital shaker at approximately 200 rpm, and incubated at 37 °C for 4 h. Thereafter, samples (100 μL) from both PBS and plasma chambers were collected and mixed with an equal volume of blank plasma and PBS, respectively. All samples were stored at −80 °C until LC-MS/MS analysis. The unbound fraction of SPN in human (or rat) plasma was calculated by dividing the SPN concentration in PBS by that in plasma.

[6] abbreviates: at the highest tested concentration (50 μM).

Like-named read-outs stand apart in the source and are kept apart here.

T3 sequence (P33261 whole entry): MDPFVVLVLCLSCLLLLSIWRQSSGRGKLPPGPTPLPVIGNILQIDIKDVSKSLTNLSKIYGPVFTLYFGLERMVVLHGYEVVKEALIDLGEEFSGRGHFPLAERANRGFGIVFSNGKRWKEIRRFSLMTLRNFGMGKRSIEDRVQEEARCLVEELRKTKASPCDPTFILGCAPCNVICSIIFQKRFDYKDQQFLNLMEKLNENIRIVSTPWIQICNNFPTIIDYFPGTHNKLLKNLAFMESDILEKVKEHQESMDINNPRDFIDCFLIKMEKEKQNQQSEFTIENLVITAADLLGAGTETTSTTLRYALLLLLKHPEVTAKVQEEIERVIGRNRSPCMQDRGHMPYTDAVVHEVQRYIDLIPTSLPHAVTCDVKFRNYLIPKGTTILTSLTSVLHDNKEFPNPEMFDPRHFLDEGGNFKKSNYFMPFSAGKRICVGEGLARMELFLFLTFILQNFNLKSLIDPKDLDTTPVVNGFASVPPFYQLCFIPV

`CC(C)=CCc1cc([C@@H]2CC(=O)c3ccc(O)c(CC=C(C)C)c3O2)cc(CC=C(C)C)c1O` [SPN, (‒)-Sophoranone]: the “shift in IC50 after pre-incubation (time-dependent inactivation of the nine CYPs)” value in data set [1] is “no obvious shift in IC50”. Also, the “residual enzyme activity, CYP1A2” value in data set [2] (setting [6]) is listed as “greater than 80%”. The half-maximal inhibitory concentration (IC50) in data set [2] (human liver microsomes 0.1 mg/mL, cocktail assay, phenacetin probe, n = 3) was above 50 µM; in data set [3] (human liver microsomes 0.1 mg/mL, cocktail assay, bupropion probe, n = 3) it was above 50 µM; in data set [4] it was 16.8 ± 3.21 µM. Moreover, the “residual enzyme activity, CYP2B6” value in data set [3] (setting [6]) is reported as “greater than 80%”. Besides, in data set [5] (human, human plasma, 10 μM, 37 °C, 4 h, n = 3, read-out: free fraction in human plasma), the fraction unbound at 4 h, 10 µM was 0.000457 ± 6.12e-05. For the same compound, the fraction unbound at 4 h, 50 µM in data set [5] (human, human plasma, 50 μM, 37 °C, 4 h, n = 3, read-out: free fraction in human plasma) was determined as 0.000927 ± 0.0004. In addition, the fraction unbound at 4 h in data set [5] (human, human plasma, 10 and 50 μM, read-out: plasma protein binding, human) is below 0.001; in data set [5] (mean over human and rat plasma in the range of 10 and 50 μM, read-out: mean unbound fraction in plasma) it was 0.000574.
